Like-named read-outs stand apart in the source and are kept apart here.
Assays:
[1] = system: T-47D^Y537S cells; assay: Cell viability assay; format: cell-based, human; settings: Homo sapiens, 72 h, read-out: T-47D^Y537S IC50
[2] = system: T-47D^D538G cells; assay: Cell viability assay; format: cell-based, human; settings: Homo sapiens, 72 h, read-out: T-47D^D538G IC50
[3] = system: T-47D cells; assay: Cell viability assay; format: cell-based, human; settings: Homo sapiens, T47D, 72 h, read-out: T-47D IC50
[4] = target: human ERβ LBD (Homo sapiens, UniProt Q92731); assay: Competitive fluorescence polarization binding assay, ERβ; settings: for RBA ERβ: IC50 estradiol/IC50 compound × 100, estradiol = 100%
[5] = system: MCF-7 cells; assay: Cell viability assay; format: cell-based, human; settings: Homo sapiens, MCF7, 72 h, read-out: MCF-7 IC50
[6] = target: T1, human ERα LBD (Homo sapiens, UniProt P03372); assay: Competitive fluorescence polarization binding assay, ERα; settings: for RBA ERα: IC50 estradiol/IC50 compound × 100, estradiol = 100%; for α/β ratio: ratio of RBA ERα to RBA ERβ
T1 sequence (P03372 311-547 limits assumed): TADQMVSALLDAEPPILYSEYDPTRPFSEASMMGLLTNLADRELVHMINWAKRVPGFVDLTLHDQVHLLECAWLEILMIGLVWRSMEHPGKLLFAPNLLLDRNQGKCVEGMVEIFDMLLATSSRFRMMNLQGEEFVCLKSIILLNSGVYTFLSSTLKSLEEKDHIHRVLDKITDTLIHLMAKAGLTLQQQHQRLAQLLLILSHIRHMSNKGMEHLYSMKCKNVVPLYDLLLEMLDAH

Chain of human ERβ LBD (Q92731 264-498 limits assumed): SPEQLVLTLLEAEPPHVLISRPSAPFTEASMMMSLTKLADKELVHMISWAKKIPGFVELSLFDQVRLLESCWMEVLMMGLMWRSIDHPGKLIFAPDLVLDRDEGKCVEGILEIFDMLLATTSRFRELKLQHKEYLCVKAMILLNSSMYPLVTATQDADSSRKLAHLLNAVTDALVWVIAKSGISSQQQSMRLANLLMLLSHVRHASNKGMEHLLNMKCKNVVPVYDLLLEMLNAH

SMILES	IC50 [1] [µM]	IC50 [2] [µM]	IC50 [3] [µM]	RBA ERβ [4] [%]	Ki ([4]; read-out: Ki ERβ) [nM]	IC50 [5] [nM]	RBA ERα [6] [%]	α/β ratio [6]	Ki ([6]; read-out: Ki ERα) [nM]	Ki [4] [nM]	Ki [6] [nM]
C=CC(=O)Nc1ccc(C2=C(c3ccc(O)cc3)C3OC2CC3S(=O)(=O)N(CC(F)(F)F)c2ccc(O)cc2)cc1 (stereo not shown) [Compound 29a, N-(4-(3-(4-Hydroxyphenyl)-5-(N-(4-hydroxyphenyl)-N-(2,2,2-trifluoroethyl)sulfamoyl)-7-oxabicyclo[2.2.1]hept-2-en-2-yl)phenyl)acrylamide]	> 31	5.55 ± 0.24	2.85 ± 0.29	6.74 ± 0.21	0.99	180 ± 50	20.03 ± 0.25	2.97	0.14		
C#CC(=O)Nc1ccc(OS(=O)(=O)C2CC3OC2C(c2ccc(O)cc2)=C3c2ccc(O)cc2)cc1 (stereo not shown) [Compound 26d, 4-Propiolamidophenyl-5,6-bis(4-hydroxyphenyl)-7-oxabicyclo[2.2.1]hept-5-ene-2-sulfonate]	8.93 ± 0.25	9.33 ± 0.46	6.91 ± 0.29	0.49 ± 0.04		1790 ± 400	0.85 ± 0.08	1.73		13.6	3.25
C/C=C/C(=O)Nc1ccc(C2=C(c3ccc(O)cc3)C3OC2CC3S(=O)(=O)Oc2ccccc2)cc1 (stereo not shown) [Compound 28b, Phenyl-5-(4-((E)-but-2-enamido)phenyl)-6-(4-hydroxyphenyl)-7-oxabicyclo[2.2.1]hept-5-ene-2-sulfonate]	> 31	17.1 ± 0.65	25.6 ± 0.98	10.40 ± 0.23		440 ± 110	14.08 ± 0.25	1.35		0.64	0.2
CC(C)=CC(=O)Nc1ccc(C2=C(c3ccc(O)cc3)C3CC(S(=O)(=O)N(CC(F)(F)F)c4ccccc4)C2O3)cc1 (stereo not shown) [Compound 29e, N-(4-(3-(4-Hydroxyphenyl)-6-(N-phenyl-N-(2,2,2-trifluoroethyl)sulfamoyl)-7-oxabicyclo[2.2.1]hept-2-en-2-yl)phenyl)-3-methylbut-2-enamide]	1.79 ± 0.17	5.18 ± 0.31	5.1 ± 0.32	0.28 ± 0.05		660 ± 120	9.50 ± 0.09	33.9		23.8	0.29
C=CC(=O)Nc1ccc(OS(=O)(=O)C2CC3OC2C(c2ccc(O)cc2)=C3c2ccc(O)cc2)cc1 (stereo not shown) [Compound 26a, 4-Acrylamidophenyl-5,6-bis(4-hydroxyphenyl)-7-oxabicyclo[2.2.1]hept-5-ene-2-sulfonate]	27.2 ± 0.73	> 31	> 31	3.86 ± 0.34		7720 ± 640	8.04 ± 0.87	2.08			
CC(C)=CC(=O)Nc1ccc(C2=C(c3ccc(O)cc3)C3OC2CC3S(=O)(=O)Oc2ccccc2)cc1 (stereo not shown) [Compound 28c, Phenyl-6-(4-hydroxyphenyl)-5-(4-(3-methylbut-2-enamido)phenyl)-7-oxabicyclo[2.2.1]hept-5-ene-2-sulfonate]	> 31	17.6 ± 0.89	24.9 ± 0.77	0.90 ± 0.25		350 ± 20	22.13 ± 0.92	24.59		7.41	0.12
C/C=C/C(=O)Nc1ccc(C2=C(c3ccc(O)cc3)C3OC2CC3S(=O)(=O)N(CC(F)(F)F)c2ccc(O)cc2)cc1 (stereo not shown) [Compound 29b, (E)-N-(4-(3-(4-Hydroxyphenyl)-5-(N-(4-hydroxyphenyl)-N-(2,2,2-trifluoroethyl)sulfamoyl)-7-oxabicyclo[2.2.1]hept-2-en-2-yl)phenyl)but-2-enamide]	> 31	> 31	5.12 ± 0.33	0.63 ± 0.14		360 ± 40	19.82 ± 0.19	31.46		10.6	0.14
CC(C)=CC(=O)Nc1ccc(OS(=O)(=O)C2CC3OC2C(c2ccc(O)cc2)=C3c2ccc(O)cc2)cc1 (stereo not shown) [Compound 26c, 4-(3-Methylbut-2-enamido)phenyl-5,6-bis(4-hydroxyphenyl)-7-oxabicyclo[2.2.1]hept-5-ene-2-sulfonate]	12 ± 0.4	8.75 ± 0.25	15.8 ± 0.68	1.31 ± 0.66		3160 ± 630	3.28 ± 0.17	2.50		5.09	0.84
C/C=C/C(=O)Nc1ccc(OS(=O)(=O)C2CC3OC2C(c2ccc(O)cc2)=C3c2ccc(O)cc2)cc1 (stereo not shown) [Compound 26b, 4-((E)-But-2-enamido)phenyl-5,6-bis(4-hydroxyphenyl)-7-oxabicyclo[2.2.1]hept-5-ene-2-sulfonate]	> 31	> 31	19.4 ± 0.54	0.40 ± 0.05		9180 ± 950	4.77 ± 0.16	11.93		16.7	0.58
C=CC(=O)Nc1ccc(C2=C(c3ccc(O)cc3)C3OC2CC3S(=O)(=O)Oc2ccccc2)cc1 (stereo not shown) [Compound 28a, Phenyl-5-(4-acrylamidophenyl)-6-(4-hydroxyphenyl)-7-oxabicyclo[2.2.1]hept-5-ene-2-sulfonate]	> 31	> 31	> 31	1.19 ± 0.27		5070 ± 710	18.55 ± 0.34	15.59		5.61	0.15
CC(C)=CC(=O)Nc1ccc(C2=C(c3ccc(O)cc3)C3CC(S(=O)(=O)Oc4ccc(O)cc4)C2O3)cc1 (stereo not shown) [Compound 28f, 4-Hydroxyphenyl-5-(4-hydroxyphenyl)-6-(4-(3-methylbut-2-enamido)phenyl)-7-oxabicyclo[2.2.1]hept-5-ene-2-sulfonate]	9.11 ± 0.35	> 31	8.53 ± 0.12	3.29 ± 0.25		930 ± 190	7.93 ± 0.34	2.41		2.03	0.35
O=C(CCl)Nc1ccc(OS(=O)(=O)C2CC3OC2C(c2ccc(O)cc2)=C3c2ccc(O)cc2)cc1 (stereo not shown) [Compound 26e, 4-(2-Chloroacetamido)phenyl-5,6-bis(4-hydroxyphenyl)-7-oxabicyclo[2.2.1]hept-5-ene-2-sulfonate]	8.85 ± 0.61	7.86 ± 0.37	8.2 ± 0.36	0.55 ± 0.02		3420 ± 320	1.02 ± 0.13	1.85		12.1	2.71
O=C(CCl)Nc1ccc(C2=C(c3ccc(O)cc3)C3CC(S(=O)(=O)Oc4ccccc4)C2O3)cc1 (stereo not shown) [Compound 28d, Phenyl-6-(4-(2-chloroacetamido)phenyl)-5-(4-hydroxyphenyl)-7-oxabicyclo[2.2.1]hept-5-ene-2-sulfonate]	> 31	> 31	13.3 ± 0.77	0.92 ± 0.17		660 ± 120	3.46 ± 0.02	3.76		7.25	0.8

— PMC10692362 (Acta Pharmaceutica Sinica. B, 2023)
